Laboratory results as given in patent US4289776A, “Xanthine derivatives” (Hoechst Aktiengesellschaft, priority 1973, dated 1981).
In brackets after ≈: the same amount, converted by molar mass. Read-outs that look alike come from different tables or passages of the source.

Tests used:
[1] = tested on: bronchospasm against acetylcholine; experiment: Broncholytic effect at the narcotized guinea-pig, bronchospasm by acetylcholine; assay type: in vivo; conditions: Cavia porcellus, iv, 2 min, 2 min. i.p.; for change in vivo at 3 mg/kg: 3 mg/kg i.v.; for change in vivo at 10 mg/kg: 10 mg/kg i.v.
Procedure: (§1) 2. Broncholytic effect at the narcotized guinea-pig
(§2) This test was performed according to H. Konsett and R. Rossler ("Archiv exp. Path. Pharmak." vol. 195 (1940), page 71).

cerebral blood perfusion = experiment: Cerebral blood perfusion by fluvography at the cat (i.v.); assay type: in vivo
Procedure: (§3) Animal tests were carried out with various oxoalkylxanthine derivatives, in which the toxicity in the mouse, the increase of cerebral and muscular blood perfusion at the cat and the fibrinolytic effect in vitro in the Hanging-Clot-test were measured. Furthermore the broncholytic effect of various compounds was tested.
(§4) 1. Cerebral and muscular blood perfusion by fluvography
(§5) These tests were performed at the cat according to K. Popendiker, I. Boksay and V. Bollmann ("Arzneimittel Forschung" vol. 21 (1971), page 1160).
(§6) The values obtained in the mentioned test 1 are given as Δλ and as half-life values in Table 2 and the results of tests 2 to 5 are enumerated in Table 3. In Table 2 Δλ is the change of blood perfusion.

[2] = tested on: bronchospasm against histamine; experiment: Broncholytic effect at the narcotized guinea-pig, bronchospasm by histamine; assay type: in vivo; conditions: for change in vivo at 3 mg/kg: 3 mg/kg i.v.; for change in vivo at 10 mg/kg: 10 mg/kg i.v.; for Broncholytic effect against histamine compared with sample 8: guinea pig, in vivo
Procedure: as §1, §2

[3] = Toxicity in the mouse (LD50); conditions: in vivo
Procedure: The toxicity was determined as LD50 --range or as LD50 according to Litchfield and Wilcoxon ("J. Pharmacol. exp. Ther." 97 (1949), page 399) in the mouse.

Solubility = assay type: physicochemical; conditions: for solubility: water, 25° C.
human blood = experiment: Fibrinolytic effect in vitro, Hanging-Clot-test; assay type: biochemical; conditions: for Minimum concentration for partial lysis / Minimum concentration for complete lysis: human blood
Procedure: This effect was measured by the Hanging-Clot-test according to K. N. von Kaulla ("Journ. med. Chem." vol. 8 (1965), page 164) in using human blood. The incubation time was 24 or 48 hours.

[4] = tested on: bronchospasm against acrotonine; experiment: Broncholytic effect at the narcotized guinea-pig, bronchospasm by acrotonine (so in the source); assay type: in vivo; conditions: 2 min. i.p.
Procedure: as §1, §2

muscular blood perfusion = experiment: Muscular blood perfusion by fluvography at the cat (i.v.); assay type: in vivo
Procedure: as §3, §4, §5, §6

isolated trancheal chain = experiment: Broncholytic effect at the isolated tracheal chain (isoprenaline reaction)
Procedure: 3. Broncholytic effect at the isolated trancheal chain
This test was performed according to J. C. Castillo and E. J. de Beer ("J. Pharm. Ther." vol. 90 (1947), page 104).

[5] = Cavia porcellus, iv, 2 min, 2 min. i.p.
[6] = ip, read-out: Toxicity (LD50-range or LD50)
[7] = Cavia porcellus, iv, 2 min, 2 min. i.p., sample in propanediol
[8] = 10 mg/kg i.v., sample in propanediol, sample 1: Longtime effect (footnote 1)
[9] = 2 mg/kg i.v. vs sample 8 at 5 mg/kg

| Structure (SMILES) | change in vivo at 10 mg/kg [1] [%] | Cerebral blood perfusion half-life (cerebral blood perfusion; 1 mg/kg i.v.) [min] | Cerebral blood perfusion Δλ (change of blood perfusion) (cerebral blood perfusion; 1 mg/kg i.v.) | Cerebral blood perfusion half-life (cerebral blood perfusion; 2 mg/kg i.v.) [min] | Cerebral blood perfusion Δλ (change of blood perfusion) (cerebral blood perfusion; 2 mg/kg i.v.) | Cerebral blood perfusion half-life (cerebral blood perfusion; 5 mg/kg i.v.) [min] | Cerebral blood perfusion relative to comparison sample 8 (cerebral blood perfusion; 5 mg/kg i.v.) | Cerebral blood perfusion Δλ (change of blood perfusion) (cerebral blood perfusion; 5 mg/kg i.v.) | change in vivo at 3 mg/kg [2, 5] [%] | change in vivo at 10 mg/kg [2, 5] [%] | Broncholytic effect against histamine compared with sample 8 [2] | LD50 [3, 6] [mg/kg] | Fibrinolytic effect relative to comparison sample 8 (human blood) | Change of the bronchospasm in % against acrotonine ([4]; 3 mg/kg i.v.) [%] | Change of the bronchospasm in % against acrotonine ([4]; 10 mg/kg i.v.) [%] | Muscular blood perfusion Δλ (change of blood perfusion) (muscular blood perfusion; 1 mg/kg i.v.) | Muscular blood perfusion Δλ (change of blood perfusion) (muscular blood perfusion; 2 mg/kg i.v.) | Muscular blood perfusion Δλ (change of blood perfusion) (muscular blood perfusion; 5 mg/kg i.v.) | Solubility in dimethyl sulphoxide (Solubility) | Solubility in ethanol (Solubility) | also measured |
| --- | --- | --- | --- | --- | --- | --- | --- | --- | --- | --- | --- | --- | --- | --- | --- | --- | --- | --- | --- | --- | --- |
| CCn1cnc2c1c(=O)n(CCCCC(C)=O)c(=O)n2C [Sample 7, 1-(5-oxohexyl)-3-methyl-7-ethyl-xanthine] | -96 | 1.5 | +2.46 | 5.0 | +5.17 | 8.2 | about nine times higher | +8.07 | -47 | -90 | improved broncholytic effect against histamine | 250 to 500 | two times as strong | -42 | -81 | +0.22 | +0.10 | +0.20 | – | – | change in vivo at 3 mg/kg [1]: -28%; Cerebral blood perfusion relative to comparison sample 8 (cerebral blood perfusion; 1 mg/kg i.v.): about five times higher; Half-life (cerebral) relative to comparison sample 8 (cerebral blood perfusion; 1 mg/kg i.v.): 1.5 times; Half-life (cerebral) relative to comparison sample 8 (cerebral blood perfusion; 5 mg/kg i.v.): more than three times longer; solubility (Solubility): ~20 mg/mL (≈ 68.4 mM); Minimum concentration for partial lysis (human blood; 24 hours incubation): 50 mmol; Minimum concentration for partial lysis (human blood; 48 hours incubation (bracket)): 25 mmol; Muscular blood perfusion half-life (muscular blood perfusion; 1 mg/kg i.v.): 0.40 min; Muscular blood perfusion half-life (muscular blood perfusion; 2 mg/kg i.v.): 5.00 min; Muscular blood perfusion half-life (muscular blood perfusion; 5 mg/kg i.v.): 0.50 min |
| CCCn1c(=O)c2c(ncn2CCCCC(C)=O)n(C)c1=O [Sample 1, 1-n-Propyl-3-methyl-7-(5-oxohexyl)-xanthine] | – | – | – | – | – | – | – | – | – | – | – | 100 to 250 | two times as strong | – | – | – | – | – | over 10% | over 10% | change in vivo at 3 mg/kg ([1]; sample in propanediol): -33%; change in vivo at 10 mg/kg ([1]; sample in propanediol): -55%; change in vivo at 3 mg/kg [2, 7]: -63%; change in vivo at 10 mg/kg [2, 7]: -73%; Solubility in dimethylformamide (Solubility): over 10%; Minimum concentration for partial lysis (human blood; 24 hours incubation): 40 mmol; Minimum concentration for complete lysis (human blood; 48 hours incubation (bracket)): 20 mmol; Change of the bronchospasm in % against acrotonine ([4]; 3 mg/kg i.v., sample in propanediol): -40%; Change of the bronchospasm in % against acrotonine [4, 8]: -82% |
| CCCCCCn1cnc2c1c(=O)n(CCCCC(C)=O)c(=O)n2C [Example 2, 1-(5-Oxohexyl)-3-methyl-7-n-hexyl-xanthine] | – | – | – | – | – | – | – | – | – | – | – | – | – | – | – | – | – | – | over 10% | over 10% | Solubility in dimethylformamide (Solubility): over 10%; Solubility in water (in words) (Solubility): only sparingly soluble in water |
| CC(=O)CCCCn1c(=O)c2c(ncn2CC(C)C)n(C)c1=O [Example 3, 1-(5-oxohexyl)-3-methyl7-isobutyl-xanthine] | – | – | – | – | – | – | – | – | – | – | – | – | – | – | – | – | – | – | over 10% | over 10% | Solubility in dimethylformamide (Solubility): over 10% |
| CCCCCCn1c(=O)c2c(ncn2CCCCC(C)=O)n(C)c1=O [Sample 3, I-(n-hexyl)-3-methyl-7-(5-oxohexyl)-xanthine] | -85 | 0.4 | +0.97 | 7.0 | +1.45 | – | – | – | -52 | -90 | improved broncholytic effect against histamine | 250 to 500 | – | -50 | -100 | -0.05 | 0 | – | – | – | Cerebral blood perfusion relative to comparison sample 8 (cerebral blood perfusion; [9]): about two times as strong; Half-life (cerebral) relative to comparison sample 8 (cerebral blood perfusion; [9]): about three times as long; Muscular blood perfusion half-life (muscular blood perfusion; 1 mg/kg i.v.): 3.30 min |
| CCCCn1cnc2c1c(=O)n(CCCCC(C)=O)c(=O)n2C [Sample 5, 1-(5-Oxohexyl)-3-methyl-7-(n-butyl)-xanthine] | -100 | 1.3 | +2.50 | 1.3 | +2.55 | 3.0 | about three times higher | +2.40 | – | -69 | – | 250 to 500 | – | – | -100 | 0 | 0 | 0 | – | – | change in vivo at 5 mg/kg ([1]; 5 mg/kg i.v.): -100%; Cerebral blood perfusion relative to comparison sample 8 (cerebral blood perfusion; 1 mg/kg i.v.): nearly six times higher; change in vivo at 5 mg/kg ([2]; Cavia porcellus, iv, 2 min, 5 mg/kg i.v., 2 min. i.p.): -42%; Change of the bronchospasm in % against acrotonine ([4]; 5 mg/kg i.v.): -70% |
| CCCn1cnc2c1c(=O)n(CCCCC(C)=O)c(=O)n2C [Sample 4, 1-(5-Oxohexyl)-3-methyl-7-propyl-xanthine] | -75 | 4.0 | +4.33 | 5.8 | +6.33 | 14.7 | – | +13.00 | -75 | -86 | improved broncholytic effect against histamine | – | two times as strong | -83 | -93 | +0.13 | +0.07 | +0.08 | over 10% | over 10% | change in vivo at 3 mg/kg [1]: -40%; Cerebral blood perfusion compared with sample 8 (in words) (cerebral blood perfusion; i.v.): longer cerebral blood perfusion; Cerebral blood perfusion relative to comparison sample 8 (cerebral blood perfusion; i.v., all dose values, corresponding dosages): more than 10 times; LD50 ([3]; iv, read-out: Toxicity (LD50)): 107 mg/kg; LD50 ([3]; po, per os, read-out: Toxicity (LD50)): 860 mg/kg; Inhibition of isoprenaline reaction in % (isolated trancheal chain; concentration 3 × 10^-5): 94%; Inhibition of isoprenaline reaction in % (isolated trancheal chain; concentration 3 × 10^-6): 2%; Inhibition of isoprenaline reaction in % (isolated trancheal chain; concentration 10^-4): 100%; Inhibition of isoprenaline reaction in % (isolated trancheal chain; concentration 10^-5): 20%; solubility (Solubility): ~32 mg/mL (≈ 104 mM); Minimum concentration for complete lysis (human blood; 24 hours incubation): 50 mmol; Minimum concentration for complete lysis (human blood; 48 hours incubation (bracket)): 25 mmol; Muscular blood perfusion half-life (muscular blood perfusion; 1 mg/kg i.v.): 3.70 min; Muscular blood perfusion half-life (muscular blood perfusion; 2 mg/kg i.v.): 0.80 min; Muscular blood perfusion half-life (muscular blood perfusion; 5 mg/kg i.v.): 3.70 min; Muscular blood perfusion compared with sample 8 (in words) (muscular blood perfusion; i.v., corresponding dosages): stronger muscular blood perfusion |
| CCCCCCCCCCn1cnc2c1c(=O)n(CCCCC(C)=O)c(=O)n2C [Sample 6, 1-(5-oxohexyl)-3-methyl-7-(n-decyl)-xanthine] | – | 0.2 | +1.40 | – | – | – | – | – | – | – | – | 500 | – | – | – | 0 | – | – | – | – | change in vivo at 10 mg/kg ([1]; sample in propanediol): -50%; Cerebral blood perfusion half-life (cerebral blood perfusion; 3 mg/kg i.v.): 0.5 min; Cerebral blood perfusion Δλ (change of blood perfusion) (cerebral blood perfusion; 3 mg/kg i.v.): +2.8; change in vivo at 10 mg/kg [2, 7]: -40%; Change of the bronchospasm in % against acrotonine [4, 8]: -50%; Muscular blood perfusion half-life (muscular blood perfusion; 3 mg/kg i.v.): 4.00 min; Muscular blood perfusion Δλ (change of blood perfusion) (muscular blood perfusion; 3 mg/kg i.v.): +0.30 |
| CC(=O)CCCCn1cnc2c1c(=O)n(CC(C)C)c(=O)n2C [Sample 2, 1-isobutyl-3-methyl-7-(5-oxohexyl)-xanthine] | -29 | 1.0 | +1.85 | – | – | 14.3 | about four times stronger | +3.45 | -80 | -73 | – | 250 to 500 | – | -20 | -47 | 0 | – | +0.05 | – | – | Half-life (cerebral) relative to comparison sample 8 (cerebral blood perfusion; 5 mg/kg i.v.): more than five times longer; Cerebral blood perfusion compared with sample 8 (in words) (cerebral blood perfusion; i.v.): stronger and longer cerebral blood perfusion; Muscular blood perfusion half-life (muscular blood perfusion; 5 mg/kg i.v.): 0.60 min |
